Measurements taken from patent US20170100489A1, “POLYETHYLENE GLYCOL-MODIFIED INTEGRIN BLOCKER HM-3 AND USE THEREOF” (HANMEI XU, priority 2012, published 2017).
Marks after values point to notes of the source that are not given here. Where no end group is shown, it is not given here. mPEG‑SC20k = methoxy polyethylene glycol-succinimidyl-carbonate, 20000 Da

Legend:
[1] = test system: sarcoma HT-1080 xenograft tumors; assay: Tumor growth inhibition, HT-1080 xenograft; conditions: 36.7 mg/kg
Protocol: Tumor diameter was measured with a vernier caliper. […] After administration, all mice were sacrificed. Stripped the tumors and weighed.

[2] = test system: human nasopharyngeal cancer CNE xenograft tumors; assay: Tumor growth inhibition, CNE xenograft; conditions: for Rate of inhibiting tumors / Tumor weight: Once 3 days
Protocol: (§1) Picked the tumor tissue of vigorous growth and was cut into pieces of about 1.5 mm^3. Under sterile conditions, the tumor tissue was inoculated subcutaneously on the right of nude mice. Tumor diameter was measured with a vernier caliper. The animals which had tumors with a size of 100-200 mm^3 were randomly divided into groups. The effect of polypeptide on anti-tumor was dynamically observed through the method of measuring tumor diameter. The times of measuring tumor diameter were once 2 days, and meantime, weighed mice. The mice in experimental group were infused polypeptide through tail vein, once 3 days. The mice in the placebo group were injected saline with the same volume. Tumor volume formula:
a, b respectively represent the length and width. According to the result of measurement, calculate the relative tumor volume. Evaluation of antitumor activity is relative tumor proliferation rate T/C(%). The formula is as follows: T/C(%)^−TRTV/CRTV×100%
(§2) TRTV: Treatment Group RTV; CRTV: Negative Control Group RTV

[3] = test system: human lung cancer H460 xenograft tumors; assay: Tumor growth inhibition, H460 xenograft; conditions: for Rate of inhibiting tumors / Tumor weight: Once 3 days
Protocol: as §1
(§3) a, b respectively represent the length and width. According to the result of measurement, calculate the relative tumor volume. Evaluation of antitumor activity is relative tumor proliferation rate T/C(%). The formula is as follows: T/C(%)^=TRTV/CRTV×100%
(§4) TRTV: Treatment group RTV; CRTV: negative control group RTV

[4] = test system: human cervical cancer HeLa xenograft tumors; assay: Tumor growth inhibition, HeLa xenograft; conditions: for Rate of inhibiting tumors / Tumor weight: Once 3 days
Protocol: Human cervical cancer HeLa cell lines in logarithmic growth phase were picked, and made into 5×10^7/ml cell suspension of under sterile conditions, and then 0.1 ml suspension was inoculated subcutaneously at the right armpit of nude mice. Tumor diameter was measured with a vernier caliper. The animals which had tumors with a size of 100-200 mm^3 were randomly divided into groups. The effect of polypeptide on anti-tumor was dynamically observed through the method of measuring tumor diameter. The times of measuring tumor diameter were once 2 days, and meantime, weighed mice. The mice in experimental group were infused polypeptide through tail vein. The mice in the placebo group were injected saline with the same volume, once 1 day; Taxol group: 10 mg/kg, once 1 week; Endostar group: 2.5 mg/kg, once 1 day; The groups of high, intermediate and low polypeptide: 6, 3, 1.5 mg/kg, respectively, once 1 day. After administration, all mice were sacrificed. Stripped the tumors and weighed.

[5] = test system: human thyroid cancer SW-579 xenograft tumors; assay: Tumor growth inhibition, SW-579 xenograft; conditions: for Rate of inhibiting tumors / Tumor weight: Once 3 day
Protocol: as §1, §3, §2

[6] = test system: human gastric cancer MGC803 xenograft tumors; assay: Tumor growth inhibition, MGC803 xenograft; conditions: for Rate of inhibiting tumors / Tumor weight: Once 3 days
Protocol: as §1, §3, §4

[7] = test system: human prostate cancer DU-145 xenograft tumors; assay: Tumor growth inhibition, DU-145 xenograft; conditions: for Rate of inhibiting tumors / Tumor weight: Once 3 days
Protocol: Human prostate cancer DU-145 cell lines in logarithmic growth phase were picked, and made into 5×10^7/ml cell suspension of under sterile conditions, and then 0.1 ml suspension was inoculated subcutaneously at the right armpit of nude mice. Tumor diameter was measured with a vernier caliper. The animals which had tumors with a size of 100-200 mm^3 were randomly divided into groups. The effect of polypeptide on anti-tumor was dynamically observed through the method of measuring tumor diameter. The times of measuring tumor diameter were once 2 days, and meantime, weighed mice. The mice in experimental group were infused polypeptide through tail vein. The mice in the placebo group were injected saline with the same volume, once 1 day; Cisplatin group: 10 mg/kg, once 1 week; Endostar group: 2.5 mg/kg, once 1 day; The groups of high, intermediate and low polypeptide: 6, 3, 1.5 mg/kg, respectively, once 1 day. After administration, all mice were sacrificed. Stripped the tumors and weighed.

[8] = test system: human breast cancer MDA-MB-231 xenograft tumors; assay: Tumor growth inhibition, MDA-MB-231 xenograft; conditions: for Rate of inhibiting tumors / Tumor weight: Once 3 days
Protocol: Picked the tumor tissue of vigorous growth and was cut into pieces of about 1.5 mm^3. Under sterile conditions, the tumor tissue was inoculated subcutaneously on the right of nude mice. Tumor diameter was measured with a vernier caliper. The animals which had tumors with a size of 100-200 mm^3 were randomly divided into groups. The effect of polypeptide on anti-tumor was dynamically observed through the method of measuring tumor diameter. The times of measuring tumor diameter were once 2 days, and meantime, weighed mice. The mice in experimental group were infused polypeptide through tail vein, once 3 days. The mice in the placebo group were injected saline with the same volume. Tumor volume formula: TV=0.52×a×b^2
as §3, §4

[9] = high, 36.7 mg/kg, listed as polypeptide
[10] = low, 9.38 mg/kg, listed as polypeptide
[11] = intermediate, 18.75 mg/kg, listed as polypeptide

“mPEG-SC20k-Ile-Val-Arg-Arg-Ala-Asp-Arg-Ala-Ala-Val-Pro-Gly-Gly-Gly-Gly-Arg-Gly-Asp ({mPEG‑SC20k}-IVRRADRAAVPGGGGRGD) [mPEG-SC20k-HM-3]” was tested, and the “Rate of inhibiting tumors” value ([1]; Once 3 days) was 65.04%*, the Tumor weight ([1]; Once 3 days) was 0.678 g and the “Rate of inhibiting tumors” value ([1]; Once 3 days, listed as polypeptide) was 65.04%. For the same substance, the “inhibition of tumor growth compared with negative control” value ([1]; P<0.05) was “significant inhibition role”, the “inhibition of tumor growth compared with negative control” value ([2]; 36.7 mg/kg, P<0.05) was “significant inhibition role” and the “toxic and side effects” value ([2]; 36.7 mg/kg, compared with positive cisplatin group) was “no obvious toxic and side effects”. The “Rate of inhibiting tumors” value ([2]; high, 36.7 mg/kg) was 68.22%*, the Tumor weight ([2]; high, 36.7 mg/kg) was 0.382 g and the “Rate of inhibiting tumors” value [2, 9] was 68.22%. For the same substance, the “Rate of inhibiting tumors” value ([2]; intermediate, 18.75 mg/kg) was 66.19%, the Tumor weight ([2]; intermediate, 18.75 mg/kg) was 0.406 g and the “Rate of inhibiting tumors” value ([2]; low, 9.38 mg/kg) was 55.32%. The Tumor weight ([2]; low, 9.38 mg/kg) was 0.537 g, the “Rate of inhibiting tumors” value [2, 10] was 55.32% and the “inhibition of tumor growth compared with negative control” value ([3]; 36.7 mg/kg, P<0.05) was “significant inhibition role”. The “Rate of inhibiting tumors” value ([3]; high, 36.7 mg/kg) was 66.45%*, the Tumor weight ([3]; high, 36.7 mg/kg) was 0.266 g and the “Rate of inhibiting tumors” value [3, 9] was 66.45%. For the same substance, the “Rate of inhibiting tumors” value ([3]; intermediate, 18.75 mg/kg) was 55.37%, the Tumor weight ([3]; intermediate, 18.75 mg/kg) was 0.354 g and the “Rate of inhibiting tumors” value [3, 11] was 55.37%. The “Rate of inhibiting tumors” value ([3]; low, 9.38 mg/kg) was 54.28%, the Tumor weight ([3]; low, 9.38 mg/kg) was 0.363 g and the “Rate of inhibiting tumors” value [3, 10] was 54.28%. For the same substance, the “inhibition of tumor growth compared with negative control” value ([4]; 36.7 mg/kg, P<0.05) was “significant inhibition role”, the “Rate of inhibiting tumors” value ([4]; high, 36.7 mg/kg) was 82.07%* and the Tumor weight ([4]; high, 36.7 mg/kg) was 0.222 g. For the same substance, the “Rate of inhibiting tumors” value [4, 9] was 82.07%, the “Rate of inhibiting tumors” value ([4]; intermediate, 18.75 mg/kg) was 74.11% and the Tumor weight ([4]; intermediate, 18.75 mg/kg) was 0.320 g. For the same substance, the “Rate of inhibiting tumors” value [4, 11] was 74.11%, the “Rate of inhibiting tumors” value ([4]; low, 9.38 mg/kg) was 63.32% and the Tumor weight ([4]; low, 9.38 mg/kg) was 0.453 g. For the same substance, the “Rate of inhibiting tumors” value [4, 10] was 63.32%, the “inhibition of tumor growth compared with negative control” value ([5]; 36.7 mg/kg, P<0.05) was “significant inhibition role” and the “toxic and side effects” value ([5]; 36.7 mg/kg, compared with positive 5-Fu group) was “no obvious toxic and side effects”. The “Rate of inhibiting tumors” value ([5]; high, 36.7 mg/kg) was 67.63%*, the Tumor weight ([5]; high, 36.7 mg/kg) was 0.406 g and the “Rate of inhibiting tumors” value [5, 9] was 67.63%. The “Rate of inhibiting tumors” value ([5]; intermediate, 18.75 mg/kg) was 60.56%, the Tumor weight ([5]; intermediate, 18.75 mg/kg) was 0.494 g and the “Rate of inhibiting tumors” value [5, 11] was 60.56%. The “Rate of inhibiting tumors” value ([5]; low, 9.38 mg/kg) was 58.42%, the Tumor weight ([5]; low, 9.38 mg/kg) was 0.521 g and the “Rate of inhibiting tumors” value [5, 10] was 58.42%. The “inhibition of tumor growth compared with negative control” value ([6]; 36.7 mg/kg, P<0.05) was “significant inhibition role”, the “Rate of inhibiting tumors” value ([6]; high, 36.7 mg/kg) was 73.42%* and the Tumor weight ([6]; high, 36.7 mg/kg) was 0.192 g. The “Rate of inhibiting tumors” value [6, 9] was 73.42%, the “Rate of inhibiting tumors” value ([6]; intermediate, 18.75 mg/kg) was 69.86% and the Tumor weight ([6]; intermediate, 18.75 mg/kg) was 0.218 g. For the same substance, the “Rate of inhibiting tumors” value [6, 11] was 69.86%, the “Rate of inhibiting tumors” value ([6]; low, 9.38 mg/kg) was 59.57% and the Tumor weight ([6]; low, 9.38 mg/kg) was 0.292 g. For the same substance, the “Rate of inhibiting tumors” value [6, 10] was 59.57%, the “inhibition of tumor growth compared with negative control” value ([7]; 36.7 mg/kg, P<0.05) was “significant inhibition role” and the “Rate of inhibiting tumors” value ([7]; high, 36.7 mg/kg) was 77.46%*. For the same substance, the Tumor weight ([7]; high, 36.7 mg/kg) was 0.417 g, the “Rate of inhibiting tumors” value [7, 9] was 77.46% and the “Rate of inhibiting tumors” value ([7]; intermediate, 18.75 mg/kg) was 67.48%. For the same substance, the Tumor weight ([7]; intermediate, 18.75 mg/kg) was 0.603 g, the “Rate of inhibiting tumors” value [7, 11] was 67.48% and the “Rate of inhibiting tumors” value ([7]; low, 9.38 mg/kg) was 57.87%. For the same substance, the Tumor weight ([7]; low, 9.38 mg/kg) was 0.781 g, the “Rate of inhibiting tumors” value [7, 10] was 57.87% and the “inhibition of tumor growth compared with negative control” value ([8]; 36.7 mg/kg, P<0.05) was “significant inhibition role”. The “Rate of inhibiting tumors” value ([8]; high, 36.7 mg/kg) was 63.05%*, the Tumor weight ([8]; high, 36.7 mg/kg) was 0.459 g and the “Rate of inhibiting tumors” value [8, 9] was 63.05%. The “Rate of inhibiting tumors” value ([8]; intermediate, 18.75 mg/kg) was 59.11%, the Tumor weight ([8]; intermediate, 18.75 mg/kg) was 0.508 g and the “Rate of inhibiting tumors” value [8, 11] was 59.11%. The “Rate of inhibiting tumors” value ([8]; low, 9.38 mg/kg) was 51.01%, the Tumor weight ([8]; low, 9.38 mg/kg) was 0.609 g and the “Rate of inhibiting tumors” value [8, 10] was 51.01%.
